These results are taken from publication PMC12389269, “Heteroaryl-Capped Hydroxamic Acid Derivatives with Varied Linkers: Synthesis and Anticancer Evaluation with Various Apoptosis Analyses in Breast Cancer Cells, Including Docking, Simulation, DFT, and ADMET Studies” (Pharmaceuticals, 2025).

For orientation: GI50 means the concentration giving 50% growth inhibition. A word on the IC50: it is the concentration that inhibits the measured activity by half. A higher IC50 goes with lower potency.

The structures appear in SMILES notation. “Also recorded” adds a separate entry of the source.

The subject of one series is HEK-293 cells. Briefly: MTT cytotoxicity assay, normal cell line HEK-293. The format is cell-based. As to the method:
(§1) Following an extensive review of the literature, we selected human breast cancer (MCF-7, MDA-MB-231) and lung cancer (A549) cell lines to evaluate the anticancer potential of the synthesized compounds, and some compounds with good anti-proliferation activity were again tested to evaluate their cytotoxic potential on A-549, MCF-7, and MDA-MB-231. The same were also tested on one non-cancerous/normal (HEK-293) cell line. All the cell lines for the required screening were developed in a suitable medium comprising 10% FBS and 2mM L-glutamine. Cancerous and non-cancerous/normal cell lines were selected for the cell proliferation and cytotoxicity assay and maintained with 5% CO2 at 37 °C in a CO2 incubator with 100% relative humidity for one complete day before the addition of experimental drugs.
MTT, a well-known colorimetric cytotoxic assay was performed to validate the cytotoxicity of the selected compounds—VI(b), VI(c), VI(e), and VI(i)—against three different human tumor cell lines [MCF-7, MDA-MB-231, A549] and a normal cell line [HEK293]. The seeding of 1 × 10^4 cells onto each well was executed in a 96-well plate in triplicate, and to keep the cells viable, overnight incubation was undertaken at 37 °C with 5% CO2 in a CO2 incubator. […] The microplate reader was set at 570 nm to measure the absorbance of each well.

Series [1] has as its system A-549 (Human Lung Cancer Cell Line). Briefly: SRB antiproliferative assay, A-549. The format is cell-based. The note with it: Homo sapiens, A549, A-549, 48 h, read-out: GI50. As to the method:
as §1
Antiproliferative activity through an SRB assay was performed for all the synthesized compounds on A-549 and MCF-7 cell lines. Around 5000 cells/well were quarantined into a 96-well microtiter plate in 100 μL. The synthesized compounds were solubilized in DMSO and diluted to different concentrations before use. The final-drug-concentration aliquots were poured into microtiter wells, and the plates were incubated for 48 h in regular conditions. After adding the final drug concentration, the cells were allowed to set in place and incubated for 60 min. A total of 50 µL of SRB solution (0.4% w/v) in 1% CH3COOH was poured into each well. The plates were then incubated for 20 min at RT. During subsequent staining, the unbounded dye was removed, and the plate reader recorded the eluted bound stain at 540 nm with a 690 nm reference wavelength. The assay was performed precisely using the appropriate reagents and reaction situation, as per the reported procedure. ADR was selected as the reference drug.
On the technique in general: The SRB assay estimates cell density from bound dye.

Another series has as its target T1, HDAC6 (Homo sapiens, UniProt Q9UBN7).
T1 construct: The HeLa nuclear extract was used as a source of HDAC activity; host or cells: HeLa (nuclear extract / cells)
T1 sequence (Q9UBN7 1-1215): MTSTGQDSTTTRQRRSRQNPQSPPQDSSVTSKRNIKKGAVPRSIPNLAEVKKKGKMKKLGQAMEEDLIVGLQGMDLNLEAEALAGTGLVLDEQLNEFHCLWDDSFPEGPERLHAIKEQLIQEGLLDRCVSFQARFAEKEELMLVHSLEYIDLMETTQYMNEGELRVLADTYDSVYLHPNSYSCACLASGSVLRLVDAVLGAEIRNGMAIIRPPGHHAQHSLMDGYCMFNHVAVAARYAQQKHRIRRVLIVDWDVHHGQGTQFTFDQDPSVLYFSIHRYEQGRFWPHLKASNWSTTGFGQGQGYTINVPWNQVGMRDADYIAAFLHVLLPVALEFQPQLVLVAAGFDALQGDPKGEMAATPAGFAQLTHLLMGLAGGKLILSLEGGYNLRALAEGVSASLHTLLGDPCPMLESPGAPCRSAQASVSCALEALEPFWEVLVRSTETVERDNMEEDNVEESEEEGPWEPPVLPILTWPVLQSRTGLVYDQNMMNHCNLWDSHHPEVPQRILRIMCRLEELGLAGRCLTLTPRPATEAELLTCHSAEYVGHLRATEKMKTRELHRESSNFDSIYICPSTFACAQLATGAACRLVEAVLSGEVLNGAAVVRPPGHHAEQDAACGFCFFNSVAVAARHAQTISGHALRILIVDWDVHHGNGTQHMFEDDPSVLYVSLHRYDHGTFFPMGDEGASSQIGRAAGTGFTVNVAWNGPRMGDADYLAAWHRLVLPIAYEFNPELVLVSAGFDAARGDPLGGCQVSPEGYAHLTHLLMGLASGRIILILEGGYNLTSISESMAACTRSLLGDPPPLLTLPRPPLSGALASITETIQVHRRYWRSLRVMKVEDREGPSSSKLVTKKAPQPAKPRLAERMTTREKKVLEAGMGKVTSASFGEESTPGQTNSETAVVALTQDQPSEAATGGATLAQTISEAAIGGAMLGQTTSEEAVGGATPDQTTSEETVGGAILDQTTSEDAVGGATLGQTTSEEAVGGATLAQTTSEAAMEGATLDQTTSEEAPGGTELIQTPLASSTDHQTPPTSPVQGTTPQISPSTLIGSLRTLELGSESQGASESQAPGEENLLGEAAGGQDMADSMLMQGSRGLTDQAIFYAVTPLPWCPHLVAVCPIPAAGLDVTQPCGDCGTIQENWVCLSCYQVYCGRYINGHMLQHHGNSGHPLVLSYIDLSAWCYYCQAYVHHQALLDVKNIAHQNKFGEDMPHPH
Briefly: HDAC inhibition assay (color de lys ELISA kit), HDAC6. The series is classed as biochemical. The note with it: HeLa nuclear extract as source of HDAC activity. As to the method: SAHA served as the assay’s positive control. The HeLa nuclear extract was used as a source of HDAC activity. The trypsinized HeLa cells were tallied, put into 96-well microtiter plates, and nurtured. Samples and the standard were placed in wells at a concentration of 100 µL. The culture environment was maintained as per the procedure. 3,3′,5,5′-tetramethylbenzidine (TMB) was included for visualization. Finally, 50 µL of halt solution was smeared. The samples and different SAHA concentrations (0.01, 0.1, 1, 10 μM) were introduced to the appropriate well and left for 72 h. BioTek Epoch (Winooski, VT, USA) microplate reader was used to quantify optical density at 450 nm. The Graph Pad Prism 5 helped to determine the IC50 values.
Background: An ELISA detects its analyte on a solid surface through an enzyme-linked reagent.

Turning to `COc1ccc(-c2cnn(CCCCCC(=O)NO)n2)cc1` [VI(i), N-Hydroxy-6-(4-(4-methoxyphenyl)-2H-1,2,3-triazol-2-yl)hexanamide], the “toxicity towards normal cell line” value in the series on HEK-293 cells is listed as “low toxicity; also recorded: somewhat minimal toxicity”. Further, in series [1], the GI50 was under 10 µg/mL. The same compound had a half-maximal inhibitory concentration (IC50) against HDAC6 of 13.4 µM.
